Molecules are shown by their SMILES.

One assay deals with NAD level of HepG2 cells. The assay is described as follows: Cellular NAD level, spectrophotometric enzymatic cycling assay. In kind it is cell-based, human. From the text: F0 was the average d fluo rescen ce of si x backgr ound control s, repres ent ing zero activ ity from a si mul ated enz ym e reaction wit h on ly NAMP T but no NAM and com pound; F100 % was the average d fluorescen ce of si x ref erence cont rols, repr ese nt ing 100% activ ity from int act enz ym e reaction w ithou t com pound p ert ur bation.
Compounds with Activ ity% less tha n 40% were consi dered as inhi bi tor s and subj ect ed to a secondary screen inhi bition valida tion, in whi ch anot her backgr oun d cont rol (FC0), a si mul ated enz ym e reaction with NAMP Tand com pound but no NAM, was int roduced to elimina te the di rec t and /or ind irect inf lue nc e fro m compou nd. At thi s st age , the Activ ity% was cal culated accor ding t o e qua tion ( 2) :
In the screeni ng, the si gna l-to- noi se (S/N) rat io was cal cul ated usi ng the equa tion: (Mean signal -Mean backgr oun d) / SD backgr oun d4. Coe fficient s of vari atio n (CV) were the ratio of SD to mean. The Z ’f act or w as de term ine d by e qua tion (3) 5:
Z' −= (3)1−3(S Dhi ghsigna l+SDlowsigna l)
Mean hi gh signa l Meanlow signa l
Determ inat ion of IC50 for NAMPT inhi bitor s […]
vari ous con cent ration s were adde d int o 96-well pl ate. The pl ate was inc uba ted at 37 °C for 5 min after addition of 16.5 μl react ion buf fer cont aini ng N AMP T. The enz ym e reactions were ini tiated by 4.5 μl NAM (1.1 1 μM) follow ing NMN measurem ent as de scri bed above . […]
Cellul ar level of NAD was measured by spe ctrophot om etric enz ym atic cyc ling assa y, as de scri bed pr evi ousl y6-8. […]
Cell vi ability was de termine d by ou r previ ous method9 usi ng the Cell Counting Kit-8 (CCK -8, Dojindo, Ja pa n). […] Th e absor banc e at 450 nm (A450) was de tected by a pl ate reade r. […]
Briefly, cel ls were se ede d int o 96-well pl ates, cul tur ed overni ght , and trea ted with correspond ing com poun ds for 72 h. […] Sul for hoda mine B in the cells was di sso lved in 10 mmol/L Tris-HCl and was measured at 515 nm usi ng a multiw ell spect ropho tometer […]

Assay [1] relates to HepG2 cells. The assay is described as follows: Cell counting kit-8 (CCK-8) cell viability assay in HepG2. The assay is classed as cell-based, human. How it is done:
(§1) Cellc ount ing k it-8 (CCK-8) assa y
Cell vi ability was de termine d by ou r previ ous method9 usi ng the Cell Counting Kit-8 (CCK -8, Dojindo, Ja pa n). In hu man he pa tocellu lar carcinom a cell line HepG 2, cells were seede d in 96-well plate and starve d for ove r 12 h with se rum-free DMEM at 60~ 70% conf lue nc y, the n trea ted wit h com pounds or ve hicle for 24 h to 72 h accor ding to expe riment requi rement s. […]
(§2) 10 μl CCK-8 sol ution was adde d to the cul ture medium and inc ub ated at 37 °C for 1 h. Th e absor banc e at 450 nm (A450) was de tected by a pl ate reade r. Each e xperi ment w as carr ied out i n t riplic ate i n thr ee r eplic ate w ells.
Background: Formazan colour is commonly taken as a measure of viable cells.

Assay [2] deals with HepG2 cells. The assay is described as follows: Sulforhodamine B protein staining (SRB) assay in HepG2. The assay is classed as cell-based, human. Particulars: for IC50: Homo sapiens. The method, then: (§3) Sulfor hod am ine B p rotei n st ai ning (SRB) assay
(§4) Cell pr oliferat ion was eva lua ted by sul for hod amine B pr ot ein st aini ng (SRB) assa y10-12.
(§5) Briefly, cel ls were se ede d int o 96-well pl ates, cul tur ed overni ght , and trea ted with correspond ing com poun ds for 72 h. Cells were the n fixe d with 10% trichl or oa cetic aci d and st ained with sul for hoda mine B (Sigm a). Sul for hoda mine B in the cells was di sso lved in 10 mmol/L Tris-HCl and was measured at 515 nm usi ng a multiw ell spect ropho tometer (VERSA max, Mol ecul ar Devi ces, Sunnyva le, CA). The inhi bi tion rat e on cell pr olif eratio n was cal culated for each well as (A515contr ol cells-A 515tr eated cells)/A515contr ol cells×100 % (A515:
(§6) OD va lue at 515 nm ). The averag e IC50 va lue s were de termine d by Logit method from at leas t t hr eei nde pe nde nt test s.

The test system of the next assay is HCT116 cells. The assay is described as follows: SRB assay in HCT116. The assay is classed as cell-based. Particulars: Homo sapiens, HCT-116, read-out: anti-proliferation IC50, initial screen. The method, then: as §3, §4, §5, §6
For orientation: The SRB assay estimates cell density from bound dye.

In another assay the test system is Huh7-C cells. The assay is described as follows: CCK-8 assay in stem-like human hepatoma cell line Huh7-C. In kind it is cell-based. Particulars: 60 h, read-out: CCK-8 assay in Huh7-C: IC50. How it is done: as §1
Cell vi ability was de termine d by ou r previ ous method9 usi ng the Cell Counting Kit-8 (CCK -8, […]
as §2

Consider `O=S(=O)(c1ccc(NC(=S)NCc2cccnc2)cc1)N1CCCCC1` [MS0], for which the “decrease of cellular NAD level” value with NAD level of HepG2 cells (HepG2, 1 μM, 24 hours) is on record as ~ 70%. Also, the IC50 in the assay with NAD level of HepG2 cells (Homo sapiens, HepG2, 24 hours treatment, read-out: IC50 for reducing NAD level) is 93.7 nM; with HepG2 cells [1] (Homo sapiens, HepG2, 48 h, read-out: CCK-8 assay in HepG2: IC50), 703 ± 95.4 nM; in the assay on HepG2 cells [2] (HepG2, 72 h, read-out: SRB assay in HepG2: IC50, HepG2, second test, 2-fold concentration gradient, 72 hours) it was ~3000 nM; in the assay with HepG2 cells [2] (HepG2, read-out: anti-proliferation IC50, initial screen, HepG2, SRB, 10-fold concentration gradient), < 5000 nM; in the assay on HCT116 cells, < 5000 nM; in the assay on Huh7-C cells, 722 ± 36.3 nM. Besides, the “cell viability (CCK-8), time course” value with HepG2 cells [1] (HepG2, 10 μM, treatment for ≥36 hours) was “markedly inhibited”. In the assay with HepG2 cells [1] (HepG2, 24 hours, up to 10 μM), the “cell viability (CCK-8)” value was “almost had no changes”. For the same compound, in the assay with HepG2 cells [2] (HepG2, 72 hours), the “growth inhibition (SRB, in words)” value was “potent growth inhibition”.
